Experimental data as given in PubChem BioAssay AID2060607 (Molecular Pharmacology Branch, DTP, NCI, 2025).

Test system: 876862-298-R-J1-PDC complex spheroids, viability % test/control
Assay: Anticancer human tumor 876862-298-R-J1-PDC patient-derived endometrial carcinoma cell line growth inhibition [CLK]
Conditions: for IC50: curve of first compound; for viability, T/C: stronger effect = lower value; active = viability on the fitted dose curve at most 10% of control; inactive = the rest
Text: A high-throughput screen of multi-cell type tumor spheroids was designed to identify active combinations of […] and targeted small molecules. Complex spheroids include a stromal component modeled by human endothelial cells (HUVEC) and fibroblasts modeled by human mesenchymal stem cells (MSCs). The concentration ranges selected for each drug and investigational agent were based upon clinically achievable concentrations if the clinical Cmax of the agent was known.
Compounds. The drugs and investigational agents: cirtuvivint (SM08502; NSC835563), CC-671 (NSC850746), vemurafenib (NSC761431), tapotoclax (NSC804041), sotorasib (NSC818433), adagrasib (NSC831453), MRTX-1133 (NSC836407), BAY2416964 (NSC825713), copanlisib (NSC816437), inavolisib (NSC800729), abemaciclib (NSC768073), osimertinib (NSC779217), entinostat (NSC756642), eltanexor (KPT-8602, NSC794443), venetoclax (NSC766270), ceralasertib (NSC777638), bortezomib (NSC756655), olaparib (NSC753686), talazoparib (NSC767125), alisertib (NSC759677), peposertib (NSC802822), gemcitabine (NSC613327), 5-fluorouracil (NSC19893), SN-38 (NSC673596), oxaliplatin (NSC266046), paclitaxel (NSC125973), and doxorubicin (NSC123127), were obtained from the National Cancer Institute (NCI) Developmental Therapeutics Program Chemical Repository. The FDA-approved anticancer drug set is available from the Developmental Therapeutics Program at https://dtp.cancer.gov/organization/dscb/obtaining/available plates.htm. […] The stock solutions were prepared in dimethyl sulfoxide (DMSO, Sigma-Aldrich, St. Louis, MO, cat. D2650), except for the platinum complexes which were prepared in saline (Quality Biological, Gaithersburg, MD, cat. 114-055-101), at 800-fold the tested concentration and stored at -70 degrees C prior to their use. All drugs and investigational agents were tested over a range starting from a high concentration at or near the clinical Cmax and decreasing in half-log increments. If the clinical Cmax for an agent had not been determined, the highest concentration tested was 10 microM.
Cell Culture. All cells were maintained in an incubator at 37 degrees C and 5% CO2 with 95% humidity. The PDC lines were cultured according to standard operating procedures established by the NCI PDMR. Briefly, all PDCs were thawed and cultured in Matrigel-coated flasks prepared with a working solution of 1X Ham's F-12 nutrient mix, without supplementation (Invitrogen, Waltham, MA, cat. 11765054), 100 U/mL penicillin-streptomycin (Invitrogen, cat. 15140122), and 2.5% Matrigel (Corning Inc., Corning, NY, cat. 354248) for the first three passages. The 947758-054-R-J2-PDC line was cultured in 6B/Colon 1A media, which includes advanced DMEM/F-12 (Thermo Fisher Scientific, cat. 12634028), 10 mM HEPES (Thermo Fisher Scientific, cat. 15630080), 1X GlutaMAX supplement (Thermo Fisher Scientific, cat. 35050061), 0.1 mg/mL primocin (InvivoGen, cat. ant-pm-2), 10% defined fetal bovine serum, heat inactivated (HyClone Laboratories Inc., cat. SH30070.03HI), 1.25 mM N-Acetyl-L-cysteine (Sigma-Aldrich, cat. A9165), 10 mM nicotinamide (Sigma-Aldrich, cat. N0636), 1X B-27 supplement (Thermo Fisher Scientific, cat. 17504044), 1X N-2 supplement (Thermo Fisher Scientific, cat. 17502048), and 10 microM Y-27632 dihydrochloride (Tocris Bioscience, cat. 1254). The 876862-298-R-J1-PDC was cultured in 6E media, which includes all 6B/Colon 1A media components plus 50% L-WRN conditioned media (ATCC, cat. CRL-3276), 50 ng/mL recombinant human EGF recombinant protein (hEGF; Thermo Fisher Scientific, cat. PHG0311), 10 ng/mL recombinant human fibroblast growth factor 10 (hGFG-10; PeproTech, cat. 100-26), 1 ng/mL recombinant human fibroblast growth factor 2 (hFGF-2; PeproTech, cat. 100-18B), and 1 µM prostaglandin E2 (PGE2; Tocris, cat. 2296). The 227483-062-R1-J1-PDC line was cultured in Panc media, containing all 6E components except hFGF-2, with the addition of 500 nM SB-431542 (Selleckchem, cat. S1067) and 10 nM gastrin (Tocris, cat. 3006). […]

[1] = second compound 0.0316 µM, first compound 0.0316 µM
[2] = second compound 0.0316 µM, first compound 0.1 µM
[3] = second compound 0.0316 µM, first compound 0.316 µM
[4] = second compound 0.0316 µM, first compound 1 µM
[5] = second compound 0.1 µM, first compound 0.0316 µM
[6] = second compound 0.1 µM, first compound 0.1 µM
[7] = second compound 0.1 µM, first compound 0.316 µM
[8] = second compound 0.1 µM, first compound 1 µM
[9] = second compound 0.316 µM, first compound 0.0316 µM
[10] = second compound 0.316 µM, first compound 0.1 µM
[11] = second compound 0.316 µM, first compound 0.316 µM
[12] = second compound 0.316 µM, first compound 1 µM
[13] = second compound 1 µM, first compound 0.0316 µM
[14] = second compound 1 µM, first compound 0.1 µM
[15] = second compound 1 µM, first compound 0.316 µM
[16] = second compound 1 µM, first compound 1 µM
[17] = second compound 3.16 µM, first compound 0.0316 µM
[18] = second compound 3.16 µM, first compound 0.1 µM
[19] = second compound 3.16 µM, first compound 0.316 µM
[20] = second compound 3.16 µM, first compound 1 µM
[21] = second compound 10 µM, first compound 0.0316 µM
[22] = second compound 10 µM, first compound 0.1 µM
[23] = second compound 10 µM, first compound 0.316 µM
[24] = second compound 10 µM, first compound 1 µM
[25] = second compound 0.0316 µM, first compound 0.00316 µM
[26] = second compound 0.0316 µM, first compound 0.01 µM
[27] = second compound 0.1 µM, first compound 0.00316 µM
[28] = second compound 0.1 µM, first compound 0.01 µM
[29] = second compound 0.316 µM, first compound 0.00316 µM
[30] = second compound 0.316 µM, first compound 0.01 µM
[31] = second compound 1 µM, first compound 0.00316 µM
[32] = second compound 1 µM, first compound 0.01 µM
[33] = second compound 3.16 µM, first compound 0.00316 µM
[34] = second compound 3.16 µM, first compound 0.01 µM
[35] = second compound 10 µM, first compound 0.00316 µM
[36] = second compound 10 µM, first compound 0.01 µM
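Note: spheroids exposed to drugs for 7 days before readout.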
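Throughout, for viability, T/C: 100% = DMSO vehicle control wells.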

CC(Nc1ccc2c(c1)OCCn1cc(N3C(=O)OCC3C(F)F)nc1-2)C(N)=O (stereo unspecified) + CN1CCN(c2cc(C(=O)Nc3cc4cc(-c5cnn(C)c5)ccc4cn3)ccn2)CC1
862 nM: IC50 (second compound 0.0316 µM)
inactive: viability, T/C [1] 88.6% | viability, T/C [2] 79% | viability, T/C [3] 56.9% | viability, T/C [4] 50% | viability, T/C (second compound 0.0316 µM, first compound 3.16 µM) 38.6% | viability, T/C (second compound 0.0316 µM, first compound 10 µM) 28.6% | viability, T/C [5] 43% | viability, T/C [6] 41.3% | viability, T/C [7] 32.6% | viability, T/C [8] 25.1% | viability, T/C (second compound 0.1 µM, first compound 3.16 µM) 21.5% | viability, T/C (second compound 0.1 µM, first compound 10 µM) 15.5%
< 31.6 nM: IC50 (second compound 0.1 µM) | IC50 (second compound 0.316 µM) | IC50 (second compound 1 µM) | IC50 (second compound 3.16 µM) | IC50 (second compound 10 µM)
active: viability, T/C [9] 3.15% | viability, T/C [10] 3.14% | viability, T/C [11] 3.55% | viability, T/C [12] 2.62% | viability, T/C (second compound 0.316 µM, first compound 3.16 µM) 2.92% | viability, T/C (second compound 0.316 µM, first compound 10 µM) 3.77% | viability, T/C [13] 0.54% | viability, T/C [14] 0.79% | viability, T/C [15] 1.03% | viability, T/C [16] 0.19% | viability, T/C (second compound 1 µM, first compound 3.16 µM) 0.18% | viability, T/C (second compound 1 µM, first compound 10 µM) 1.05% | viability, T/C [17] 0.69% | viability, T/C [18] 2.49% | viability, T/C [19] 1.55% | viability, T/C [20] 2.4% | viability, T/C (second compound 3.16 µM, first compound 3.16 µM) 2.04% | viability, T/C (second compound 3.16 µM, first compound 10 µM) 0.86% | viability, T/C [21] 1.76% | viability, T/C [22] 0.59% | viability, T/C [23] 1.6% | viability, T/C [24] 0.79% | viability, T/C (second compound 10 µM, first compound 3.16 µM) 0.45% | viability, T/C (second compound 10 µM, first compound 10 µM) 1.26%

CCN1CCN(Cc2ccc(Nc3ncc(F)c(-c4cc(F)c5nc(C)n(C(C)C)c5c4)n3)nc2)CC1 + CN1CCN(c2cc(C(=O)Nc3cc4cc(-c5cnn(C)c5)ccc4cn3)ccn2)CC1
678 nM: IC50 (second compound 0.0316 µM)
< 3.16 nM: IC50 (second compound 0.1 µM) | IC50 (second compound 0.316 µM) | IC50 (second compound 1 µM) | IC50 (second compound 3.16 µM) | IC50 (second compound 10 µM)
inactive: viability, T/C [25] 90.2% | viability, T/C [26] 81.3% | viability, T/C [1] 73.3% | viability, T/C [2] 74.8% | viability, T/C [3] 52.3% | viability, T/C [4] 47.5% | viability, T/C [27] 47% | viability, T/C [28] 45% | viability, T/C [5] 44.1% | viability, T/C [6] 47.3% | viability, T/C [7] 40.9% | viability, T/C [8] 43.3%
active: viability, T/C [29] 5.03% | viability, T/C [30] 5.13% | viability, T/C [9] 6.69% | viability, T/C [10] 7.27% | viability, T/C [11] 9.15% | viability, T/C [12] 9.4% | viability, T/C [31] 0.94% | viability, T/C [32] 1.28% | viability, T/C [13] 1.38% | viability, T/C [14] 1.66% | viability, T/C [15] 2.25% | viability, T/C [16] 3.04% | viability, T/C [33] 1.66% | viability, T/C [34] 0.97% | viability, T/C [17] 1.47% | viability, T/C [18] 1.34% | viability, T/C [19] 2.18% | viability, T/C [20] 3.2% | viability, T/C [35] 0.6% | viability, T/C [36] 0.92% | viability, T/C [21] 1.95% | viability, T/C [22] 2.18% | viability, T/C [23] 1.88% | viability, T/C [24] 2.14%

COc1c(OCCCN2CCOCC2)ccc2c3n(c(=NC(=O)c4cnc(N)nc4)nc12)CCN3 + CN1CCN(c2cc(C(=O)Nc3cc4cc(-c5cnn(C)c5)ccc4cn3)ccn2)CC1
active: viability, T/C [29] 4.86% | viability, T/C [30] 2.92% | viability, T/C [9] 3.87% | viability, T/C [10] 3.03% | viability, T/C [11] 3.72% | viability, T/C [12] 2.59% | viability, T/C [31] 0.47% | viability, T/C [32] 1.56% | viability, T/C [13] 0.48% | viability, T/C [14] 0.16% | viability, T/C [15] 1.64% | viability, T/C [16] 1.15% | viability, T/C [33] 1.02% | viability, T/C [34] 1.06% | viability, T/C [17] 1.3% | viability, T/C [18] 1.09% | viability, T/C [19] 1.55% | viability, T/C [20] 0.99% | viability, T/C [35] 0.74% | viability, T/C [36] 1.11% | viability, T/C [21] 0.45% | viability, T/C [22] 1.75% | viability, T/C [23] 2.12% | viability, T/C [24] 1.84%
< 3.16 nM: IC50 (second compound 0.1 µM) | IC50 (second compound 0.316 µM) | IC50 (second compound 1 µM) | IC50 (second compound 3.16 µM) | IC50 (second compound 10 µM)
inactive: viability, T/C [25] 90.4% | viability, T/C [26] 74.4% | viability, T/C [1] 65.2% | viability, T/C [2] 26.8% | viability, T/C [3] 16.7% | viability, T/C [4] 17.8% | viability, T/C [27] 47.1% | viability, T/C [28] 40% | viability, T/C [5] 28.3% | viability, T/C [6] 14.6% | viability, T/C [7] 11.1% | viability, T/C [8] 13.2%
48.3 nM: IC50 (second compound 0.0316 µM)
